Publication PMC10120551, “Novel Glu-based pyrazolo[3,4-d]pyrimidine analogues: design, synthesis and biological evaluation as DHFR and TS dual inhibitors” (Journal of Enzyme Inhibition and Medicinal Chemistry, 2023)

Tests used:
COLO 205 = experiment: NCI one-dose screen (SRB); format: cell-based, human; settings: COLO 205, Colon cancer; 10 µM single dose
Method: (§1) The growth percentage (G%) and cell viability of the herein target compounds 6a–l, 7a,b, and 9a–c have been screened towards a full panel of 59 cancer cells at NCI’s Developmental Therapeutics Program (NCI-DTP, MD, USA)[21]. The submitted analogues were initially examined for preliminary in vitro anticancer activity using sulforhodamine B (SRB) assay at 10 µM as a single dose to evaluate cell growth and viability according to the procedure of Drug Evaluation Branch[22]^,[23].
(§2) Different types of tumours – colon, NSCLC, leukaemia, CNS, renal, breast, ovarian, melanoma, and prostate cancers – were investigated as a full panel of 59 cell lines, and the attained results are cited in Figures S1–S17 (see Supplementary Material) where the value recorded is the growth relative to that of both the negative control and zero-time number of cells in which both growth inhibition (GI%; 0–100%) and lethality (L%; 0–100%) percentages can be identified. The growth inhibition means percentages (MGI%) for the examined target analogues towards the different treated 59 cancer cells were presented in Figure 2.
(§3) The designed analogues were submitted to NCI-Chemotherapeutic Agents Repository (MD, USA) for screening on a panel of 59 cancer cell lines. All compounds were initially examined at 10 µM concentration (Single-Dose Screen), and then the most efficient analogue 6i was screened further at 0.01–100 µM (Five-Dose Screen). The screening procedures were performed according to NCI-Drug Evaluation Branch protocol using SRB protein assay, as described previously[21]^,[66]. The experimental procedures were detailed in the Supporting Information.

HT29 = experiment: NCI one-dose screen (SRB); format: cell-based, human; settings: HT29, Colon cancer; 10 µM single dose
Method: as §1, §2, §3

LOX IMVI [1] = experiment: NCI one-dose screen (SRB); format: cell-based, human; settings: Melanoma, 10 µM single dose
Method: as §1, §2, §3

MDA-MB-435 = experiment: NCI one-dose screen (SRB); format: cell-based, human; settings: MDA-MB-435, Melanoma; 10 µM single dose
Method: as §1, §2, §3

NCI-H522 = experiment: NCI one-dose screen (SRB); format: cell-based, human; settings: NCI-H522, NSCLC; 10 µM single dose
Method: as §1, §2, §3

OVCAR-3 = experiment: NCI one-dose screen (SRB); format: cell-based, human; settings: OVCAR-3, Ovarian; 10 µM single dose
Method: as §1, §2, §3

OVCAR-8 = experiment: NCI one-dose screen (SRB); format: cell-based, human; settings: OVCAR-8, Ovarian; 10 µM single dose
Method: as §1, §2, §3

RPMI-8226 = experiment: NCI one-dose screen (SRB); format: cell-based, human; settings: RPMI-8226, Leukaemia; 10 µM single dose
Method: as §1, §2, §3

RXF 393 = experiment: NCI one-dose screen (SRB); format: cell-based, human; settings: RXF 393, Renal; 10 µM single dose
Method: as §1, §2, §3

SF-268 [2] = experiment: NCI one-dose screen (SRB); format: cell-based, human; settings: SF-268, CNS; 10 µM single dose
Method: as §1, §2, §3

UACC-62 = experiment: NCI one-dose screen (SRB); format: cell-based, human; settings: UACC-62, Melanoma; 10 µM single dose
Method: as §1, §2, §3

MCF-7 (Breast cancer) = experiment: MTT cytotoxicity assay; format: cell-based, human
Method: (§4) The MTT assay was carried out according to the procedure cited earlier. Briefly, in a 96-well plate, either cancer or normal cells were seeded (10^6 cells/cm^2; 100 µL/well) and incubated for 12 h at 37 °C and CO2 (5%), then serial dilutions of compound 6i were added and incubated for 48 h using DMSO control (0.5% V/V). MTT (3-(4,5-dimethylthiazoyl)-2,5-diphenyl-tetrazolium bromide; Cat. No. M-5655) 5 mg/mL was then added. After 4 h incubation, the formed MTT formazan crystals were solubilised by 10% Triton X-100 plus 0.1 N HCl in anhydrous isopropanol. The absorbance was read using a Bioline plate reader at λ570–630 nm[25–29]. The selectivity of 6i towards HSF cells was also determined as follows[30]^,[31]: SI=IC50HSF cells/IC50of cancer cells

OVCAR-3 (Ovarian Cancer) = experiment: MTT cytotoxicity assay; format: cell-based, human; settings: for IC50: OVCAR-3, MTT, 48 h, mean ± SD from triplicates
Method: as §4

PC-3 (Prostate cancer) = experiment: MTT cytotoxicity assay; format: cell-based, human
Method: as §4

HCT-116 = settings: HCT-116, Colon cancer; five-dose 0.01–100 µM
SW-620 = settings: SW-620, Colon cancer; five-dose 0.01–100 µM
SNB-75 = settings: SNB-75, CNS cancer; five-dose 0.01–100 µM
LOX IMVI [3] = settings: Melanoma, five-dose 0.01–100 µM
DU-145 = settings: DU-145, Prostate cancer; five-dose 0.01–100 µM
MDA-MB-468 = settings: MDA-MB-468, Breast cancer; five-dose 0.01–100 µM
SF-268 [4] = experiment: cells; settings: Homo sapiens
SK-MEL-28 = experiment: cells; settings: Homo sapiens
OVCAR-5 = experiment: cells; settings: Homo sapiens
A498 = experiment: cells; settings: Homo sapiens
PC-3 = experiment: cells; settings: Homo sapiens
T-47D = experiment: cells; settings: Homo sapiens, T47D

SMILES: CCOC(=O)CC[C@H](NC(=O)c1ccc(NC(=O)Cn2cnc3c(c(C)nn3-c3ccc(Br)cc3)c2=O)cc1)C(=O)OCC [Compound 6i]
- GI% (COLO 205): 71.69%
- GI% (HT29): 59.90%
- GI% (LOX IMVI [1]): 78.49%
- GI% (MDA-MB-435): 57.10%
- GI% (NCI-H522): 52.34%
- GI% (OVCAR-3): 96.83%
- GI% (OVCAR-8): 87.86%
- GI% (RPMI-8226): 53.52%
- L% (lethality) (RXF 393): 22.73%
- GI% (SF-268 [2]): 85.11%
- GI% (UACC-62): 63.82%
- IC50 (MCF-7 (Breast cancer); Homo sapiens, MCF7, MCF-7, MTT, 48 h, mean ± SD from triplicates): 4.4 ± 0.26 µM
- Selectivity index (MCF-7 (Breast cancer); IC50 HSF cells / IC50 MCF-7): 11.02
- IC50 (OVCAR-3 (Ovarian Cancer); Homo sapiens, OVCAR-3, 48 h): 11.5 µM
- Selectivity index (OVCAR-3 (Ovarian Cancer); IC50 HSF cells / IC50 OVCAR-3): 4.21
- IC50 (OVCAR-3 (Ovarian Cancer)): 11.5 ± 0.58 µM
- IC50 (PC-3 (Prostate cancer); Homo sapiens, PC-3, MTT, 48 h, mean ± SD from triplicates): 12.4 ± 0.62 µM
- Selectivity index (PC-3 (Prostate cancer); IC50 HSF cells / IC50 PC-3): 3.91
- TGI (HCT-116): >100 µM
- TGI (SW-620): 44.4 µM
- TGI (SNB-75): 40.9 µM
- TGI (LOX IMVI [3]): 20.6 µM
- TGI (DU-145): 28.8 µM
- TGI (MDA-MB-468): 51.3 µM
- GI50 (SF-268 [4]; SF-268): 7.01 µM
- CC50 (SF-268 [4]; SF-268, read-out: LC50): > 100 µM
- GI50 (SK-MEL-28; SK-MEL-28): 10.1 µM
- CC50 (SK-MEL-28; SK-MEL-28, read-out: LC50): 50.2 µM
- GI50 (OVCAR-5; OVCAR-5): 20.2 µM
- CC50 (OVCAR-5; OVCAR-5, read-out: LC50): > 100 µM
- GI50 (A498; A498): 24.9 µM
- CC50 (A498; A498, read-out: LC50): 93 µM
- GI50 (PC-3; PC-3): 5.79 µM
- CC50 (PC-3; PC-3, read-out: LC50): 47.7 µM
- GI50 (T-47D): 45.6 µM
- CC50 (T-47D; read-out: LC50): > 100 µM
